What was measured:
[1] = system: type IV phosphodiesterase; assay: Type IV phosphodiesterase inhibiting activity (3H-cAMP hydrolysis, PDE IV fraction from U937 cells); assay type: biochemical; conditions: PDE IV fraction from human U937 cells, 30° C., 30 minutes
Description: (1) Method of Measurement of Type IV Phosphodiesterase Inhibiting Activity
The following assay was used to evaluate the ability of the compound of the present invention to suppress type IV phosphodiesterase, according to Biochemical.
1) Type IV phosphodiesterase activity fractions were prepared as follows. Human histiocytic lymphoma cell line U937 was cultured in an RPMI1640 medium containing 10% fetal calf serum to obtain 10^9 cells of U937. The cells were recovered by centrifugation and suspended in 40 ml of buffer A (20 mM bis-tris, 5 mM 2-mercaptoethanol, 2 mM benzamidine, 2 mM EDTA, 0.1 mM 4-(2-aminoethyl)benzensulfonyl hydrochloride, 50 mM sodium acetate, pH=6.5). The cells were broken by a sonication and centrifuged (4° C., 10,000G, 10 minutes) to obtain a supernatent. This was filtered by a 0.45 μm filter to obtain the soluble fraction.
The soluble fraction obtained was applied into a 1×10 cm DEAE Sepharose column equalibrated with the buffer A. 120 ml of the buffer A containing a linear gradient solution of 0.05 to 1 M sodium acetate was used to separate the phosphodiesterase and recover 24 5-ml fractions. Each of the fractions was measured for the cAMP phosphodiesterase activity.
2) The test compound was reacted at a desired concentration in a reaction mixture containing 20 mM tris-HCl (pH 7.5), 1 mM MgCl2, 100 μM EDTA, 330 μg/ml calf serum albumin, 10 μg/ml 5′-nucleotidase, 0.4 μCi ^3H-cAMP ([…] cAMP) and the type IV phosphodiesterase stored solution at 30° C. for 30 minutes. QAE-Sephadex suspended in 10 mM of hepes-Na (pH-7.0) was added to the reaction mixture which was then allowed to stand for 5 minutes, then the supernatant was obtained, QAE-Sephadex was further added, to the supernatant, and was allowed to stand for 5 minutes, then the supernatant was obtained and measured for radioactivity.

[2] = system: TNF-α production by LPS stimulated mouse peritoneal macrophages; assay: TNF-α production inhibitory activity by LPS stimulated macrophages (ELISA); assay type: cell-based; conditions: Peritoneal macrophage, LPS 10 μg/ml, 8 hours
Description: (1) Method of Measurement of TNF-α Production Inhibitory Activity by LPS Stimulated Macrophages
The following assay was used to evaluate the ability of the compound of the present invention to suppress TNF-α production by LPS stimulated macrophages according to Immuno pharmacol. 29, 121-127 (1995).
1) 6 to 10 week old female BALB/c mice were used, 2 ml portions of thioglycolate were intraperitoneally administered, and the abdominal cavities were washed by 10 ml of PBS after 4 days, whereby 1 to 2×10^7 peritoneal cells were obtained per mouse. These were suspended in a hemocyte solution (0.75% ammonium chloride, 17 mM tris-hydrochlorate buffer, pH7.2), centrifuged, then resuspended in an RPMI1640 medium including 10% fetal calf serum and seeded in a 96-well cell culture plate at a density of 1×10^5 cells/50 μl/well. Since these cells adhered strongly to the tissue culture plate and were positive in nonspecific esterase staining, they were used for the test as mouse peritoneal macrophages. Mouse peritoneal macrophages were precultured overnight at 37° C. in 5% CO2 for the experiment.
2) E. Coli (serum type 055:B5) derived LPS was dissolved in PBS in a concentration of 1 mg/ml, then sterilized by filtration. The test compound was dissolved in DMSO to make a 1000-fold concentration solution of the final concentration of use. 10 μl of the above LPS stock solution (final concentration 10 μg/ml) and 1 μl of the tested substance stock solution were added and mixed in 0.5 ml of RPMI1640 medium containing 10% fetal calf serum. This was added to the above cells at 50 μl/well and cultured for 8 hours. The cultured supernatant was recovered from each well and the TNF-α concentration was measured by the ELISA method (Cytoscreen® Immunoassay Kit Mouse TNF-α, BioSource International).

## O=C(Nc1ccccc1)c1cn(-c2ccc(F)cc2)c2ncccc2c1=O [Example 67, N-phenyl-1-(4-fluorophenyl)-1,4-dihydro[1,8]naphthylidin-4-one-3-carboxamide]
[1]
  IC50: 60 nM
[2]
  IC50: 700 nM

## Cc1ccccc1NC(=O)c1cn(-c2ccc(F)cc2)c2ncccc2c1=O [Example 69, 1-(4-Fluorophenyl)-N-(2-tolyl)-1,4-dihydro[1,8]naphthylidin-4-one-3-carboxamide]
[1]
  IC50: 13 nM
[2]
  IC50: 100 nM

## Cc1cccc(NC(=O)c2cn(-c3ccc(F)cc3)c3ncccc3c2=O)c1 [Example 70, 1-(4-Fluororhenyl)-N-(3-tolyl)-1,4-dihydro[1,8]naohthylidin-4-one-3-carboxamide]
[1]
  IC50: 610 nM
[2]
  IC50: 1000 nM

## Cc1cccc(C)c1NC(=O)c1cn(-c2ccc(F)cc2)c2ncccc2c1=O [Example 72, 1-(4-Fluorophenyl)-N-(2,6-xylidyl)-1,4-dihydro[1,8]naphthylidin-4-one-3-carboxamide]
[1]
  IC50: 180 nM
[2]
  IC50: 10 nM

## O=C(Nc1ccccc1O)c1cn(-c2ccc(F)cc2)c2ncccc2c1=O [Example 73, 1-(4-Fluorophenyl)-N-(2-hydroxyphenuyl)-1,4-dihydro[1,8]naphthylidin-4-one-3-carboxamide]
[1]
  IC50: 810 nM
[2]
  IC50: 1000 nM

## O=C(Nc1cccc(O)c1)c1cn(-c2ccc(F)cc2)c2ncccc2c1=O [Example 74, 1-(4-Fluorophenyl)-N-(3-hydroxythenyl)-1,4-dihydro[1,8]naphthylidin-4-one-3-carboxamide]
[1]
  IC50: 420 nM
[2]
  IC50: 400 nM

## O=C(Nc1ccc(O)cc1)c1cn(-c2ccc(F)cc2)c2ncccc2c1=O [Example 75, 1-(4-Fluorophenyl)-N-(4-hydroxyhenyl)-1,4-dihydro[1,8]naphthylidin-4-one-3-arboxamide]
[1]
  IC50: 100 nM
[2]
  IC50: 200 nM

## COc1cccc(NC(=O)c2cn(-c3ccc(F)cc3)c3ncccc3c2=O)c1 [Example 77, 1-(4-Fluorophenyl)-N-(3-methoxyphenyl)-1,4-dihydro[1,8]naphthylidin-4-one-3-carboxamide]
[1]
  IC50: 180 nM
[2]
  IC50: 100 nM

## O=C(Nc1cccc(CO)c1)c1cn(-c2ccc(F)cc2)c2ncccc2c1=O [Example 79, 1-(4-fluorophenyl)-N-(3-hydroxymethylphenyl)-1,4-dihydro[1,8]naohthylidin-4-one-3-carboxamide]
[1]
  IC50: 55 nM
[2]
  IC50: 300 nM

## CC(=O)c1ccccc1NC(=O)c1cn(-c2ccc(F)cc2)c2ncccc2c1=O [Example 80, N-(2-acetophenyl)-1-(4-fluorophenyl)-1,4-dihydro[1,8]naphthylidin-4-one-3-carboxamide]
[1]
  IC50: 110 nM
[2]
  IC50: 100 nM

## CC(=O)c1cccc(NC(=O)c2cn(-c3ccc(F)cc3)c3ncccc3c2=O)c1 [Example 81, N-(3-acetophenyl)-1-(4-fluorophenyl)-1,4-dihydro[1,8]naphthylidin-4-one-3-carboxamide]
[1]
  IC50: 110 nM
[2]
  IC50: 500 nM

## O=C(O)c1cccc(NC(=O)c2cn(-c3ccc(F)cc3)c3ncccc3c2=O)c1 [Example 86, 3-[{[1-(4-Fluorophenyl)-1,4-dihydro[1,8]naohthylidin-4-one-3-yl]carbonyl}amino]benzoic Acid]
[1]
  IC50: 32 nM
[2]
  IC50: 400 nM

## NC(=O)c1cccc(NC(=O)c2cn(-c3ccc(F)cc3)c3ncccc3c2=O)c1 [Example 87, N-[3-(aminocarbonyl)phenyl]-1-(4-fluorophenyl)-1,4-dihydro[1,8]naphthylidin-4-one-3-carboxamide]
[1]
  IC50: 72 nM
[2]
  IC50: 200 nM

## Nc1ccccc1NC(=O)c1cn(-c2ccc(F)cc2)c2ncccc2c1=O [Example 90, N-(2-aminophenyl)-1-(4-fluorophenyl)-1,4-dihydro[1,8]naphthylidin-4-one-3-carboxamide]
[1]
  IC50: 96 nM
[2]
  IC50: 500 nM

## Nc1cccc(NC(=O)c2cn(-c3ccc(F)cc3)c3ncccc3c2=O)c1 [Example 91, N-(3-aminophenyl)-1-(4-fluorophenyl)-1,4-dihydro[1,8]naphthylidin-4-one-3-carboxamide]
[1]
  IC50: 52 nM
[2]
  IC50: 100 nM

## Nc1ccc(NC(=O)c2cn(-c3ccc(F)cc3)c3ncccc3c2=O)cc1 [Example 92, N-(4-aminophenyl)-1-(4-fluorophenyl)-1,4-dihydro[1,8]naphthylidin-4-one-3-carboxamide]
[1]
  IC50: 140 nM
[2]
  IC50: 200 nM

## O=C(Nc1ccccc1[N+](=O)[O-])c1cn(-c2ccc(F)cc2)c2ncccc2c1=O [Example 93, 1-(4-fluorophenyl)-N-(2-nitrophenyl)-1,4-dihydro[1,8]naohthylidin-4-one-3-carboxamide]
[1]
  IC50: 16 nM
[2]
  IC50: 30 nM

## O=C(Nc1cccc([N+](=O)[O-])c1)c1cn(-c2ccc(F)cc2)c2ncccc2c1=O [Example 94, 1-(4-Fluorophenyl)-N-(3-nitrophenyl)-1,4-dihydro[1,8]naphthylidin-4-one-3-carboxamide]
[1]
  IC50: 350 nM
[2]
  IC50: 500 nM

## O=C(Nc1ccc(F)cc1)c1cn(-c2ccc(F)cc2)c2ncccc2c1=O [Example 98, 1,N-bis-(4-fluorophenyl)-1,4-dihydro[1,8]naphthylidin-4-one-3-carboxamide]
[1]
  IC50: 160 nM
[2]
  IC50: 1000 nM

## Cc1cnccc1NC(=O)c1cn(-c2ccc(F)cc2)c2ncccc2c1=O [Example 104, 1-(4-Fluorophenyl)-N-(3-methylpyridin-4-yl)-1,4-dihydro[1,8]naphthylidin-4-one-3-carboxamide]
[1]
  IC50: 19 nM
[2]
  IC50: 0.3 nM

## O=C(Nc1cccnc1Cl)c1cn(-c2ccc(F)cc2)c2ncccc2c1=O [Example 105, N-(2-Chloropyridin-3-yl)-1-(4-fluorophenyl)-1,4-dihydro[1,8]naphthylidin-4-one-3-carboxamide]
[1]
  IC50: 85 nM
[2]
  IC50: 400 nM

## O=C(Nc1ccncn1)c1cn(-c2ccc(F)cc2)c2ncccc2c1=O [Example 107, 1-(4-Fluorophenyl)-N-(4-pyrimidyl)-1,4-dihydro[1,8]naphthylidin-4-one-3-carboxamide]
[1]
  IC50: 520 nM
[2]
  IC50: 1000 nM

## O=C(Nc1c(Cl)ncnc1Cl)c1cn(-c2ccc(F)cc2)c2ncccc2c1=O [Example 108, 1-(4-Fluorophenyl)-N-(4,6-dichloropyrimidine-5-yl)-1,4-dihydro[1,8]naphthylidin-4-one-3-carboxamide]
[1]
  IC50: 4.6 nM
[2]
  IC50: 1000 nM

## O=C(Nc1cnccn1)c1cn(-c2ccc(F)cc2)c2ncccc2c1=O [Example 109, 1-(4-Fluorophenyl)-N-pyrazinyl-1,4-dihydro[1,8]naphthylidin-4-one-3-carboxamide]
[1]
  IC50: 400 nM
[2]
  IC50: 400 nM

## O=C(Nc1cccc2ncccc12)c1cn(-c2ccc(F)cc2)c2ncccc2c1=O [Example 113, 1-(4-Fluorophenyl)-N-(5-quinolyl)-1,4-dihydro [1,8]naphthylidin-4-one-3-carboxamide]
[1]
  IC50: 44 nM
[2]
  IC50: 60 nM

## O=C(Nc1cccc2cnccc12)c1cn(-c2ccc(F)cc2)c2ncccc2c1=O [Example 114]
[1]
  IC50: 210 nM
[2]
  IC50: 100 nM

## O=C(Nc1c(Cl)cncc1Cl)c1cn(-c2ccccc2)c2ncccc2c1=O [Example 118, N-(3,5-Dichloropyridin-4-yl)-1-phenyl-1,4-dihydro[1,8]naphthylidin-4-one-3-carboxamide]
[1]
  IC50: 0.2 nM
[2]
  IC50: 0.4 nM

Reference: patent publication US6541480B2, “1-aryl-1,8-naphthylidin-4-one derivative as type IV phosphodiesterase inhibitor” (Suntory Limited, priority 1997, dated 2003)
